# Reference: US20040116336A1, “Peptide derivatives” (priority 2002, published 2004)
# pEC50, pIC50: −log10 of the molar value. Non-standard residues stand in square brackets, D forms with d. Residues, ends and D or L forms follow the SMILES beside them. Phe(4-Cl) = N[C@@H](Cc1ccc(Cl)cc1)C(=O)O; Cha = N[C@@H](CC1CCCCC1)C(=O)O; pGlu = O=C1CC[C@@H](C(=O)O)N1
# Legend:
# APJ [1] = target: T1, APJ (Homo sapiens, UniProt P35414); experiment: Receptor binding assay-1 (125I-labeled compound in Reference Example 1, CHO-A10 membrane fraction); details: 125I-labeled compound in Reference Example 1 at 100 pM
# T1 construct: expressed in transfected cells; host or cells: CHO (CHO-A10; clone 6 for the cAMP assay)
# T1 sequence (P35414 1-380): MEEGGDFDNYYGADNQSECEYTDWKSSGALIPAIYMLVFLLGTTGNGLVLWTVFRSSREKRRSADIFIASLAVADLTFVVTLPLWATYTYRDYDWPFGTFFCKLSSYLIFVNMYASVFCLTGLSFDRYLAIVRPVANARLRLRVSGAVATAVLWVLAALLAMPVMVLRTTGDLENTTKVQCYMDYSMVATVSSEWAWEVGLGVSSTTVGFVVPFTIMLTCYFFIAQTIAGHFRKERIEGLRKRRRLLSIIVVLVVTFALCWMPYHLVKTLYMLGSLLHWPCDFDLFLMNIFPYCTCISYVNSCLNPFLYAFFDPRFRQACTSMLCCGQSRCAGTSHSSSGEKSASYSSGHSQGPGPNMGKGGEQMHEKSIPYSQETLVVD
# Experimental: (§1) This product was mixed with an equal volume of an assay buffer (50 mM Tris-HCl/pH 7.5, 5 mM EDTA, 0.5 mM PMSF, 20 μg/ml leupeptin, 0.1 μg/ml pepstatin A, 4 μg/ml E-64 (Peptide Research Laboratory, Co.), 0.1% bovine serum albumin) and stored at −30° C. before use.
# (§2) CHO-A10 cells were cultured, recovered with PBS containing 5 mM EDTA from a culture vessel, and suspended in the above-mentioned assay buffer not containing bovine serum albumin. The cells were homogenized 3 times at 12,000 rpm for 15 seconds by a Polytron homogenizer (manufactured by Kinematica Inc.) and then centrifuged (1000×g, 4° C., 10 minutes), and the supernatant was recovered. The precipitates were subjected again to the same procedure as above, and the respective supernatants were combined and centrifuged at 100,000×g, 4° C. for 1 hour, to recover precipitates (membrane fraction). The membrane fraction was suspended again in a small amount of the buffer, homogenized with a Teflon homogenizer and stored at −80° C. before use.
# (§3) Binding assay was carried out under the following conditions. […] Measurement of non-specific binding was carried out using a well containing 1 μM unlabeled compound in place of the test sample. After the incubation was finished, a cell harvester (Packard) adapted to 96 wells and a filter unit (GF/C, Packard) were used for separation thereby capturing the membrane fraction on the filter. After the filter was sufficiently dried, Microcinti 0 (Packard) was added thereto, and using Top Count (Packard), the amount of the labeled material captured together with the membrane fraction on the filter was measured.
# APJ [2] = target: T1, APJ; experiment: Receptor binding assay-2 (compound in Reference Example 2 used); details: compound in Reference Example 2 used as ligand; read-out: IC50
# Experimental: as §1, §2, §3
# APJ [3] = target: T1, APJ; experiment: Inhibitory activity on forskolin-stimulated cAMP production in CHO-A10 clone 6 cells; assay type: cell-based; details: read-out: EC50
# Experimental: Measurement of an Inhibitory Activity on Forskolin-Stimulated cAMP Production
# Hanks' balanced salt solution (HBSS) containing 0.2 mM 3-isobutyl-1-methylxanthine (IBMX) and 0.05% bovine serum albumin was prepared as an assay buffer, and each well was washed twice with 500 μl assay buffer and pre-incubated at 37° C. for 30 minutes. Further, each well was washed once with 500 μl assay buffer, and a sample dissolved in the assay buffer containing 1 μM forskolin was added at a volume of 500 μl/well and incubated at 37° C. for 30 minutes. Wells incubated with the assay buffer not containing forskolin were prepared in the same manner in order to determine the basal level of cellular cAMP production, while wells incubated with the assay buffer containing forskolin were also prepared in order to determine the maximum level of cAMP production stimulated with forskolin. After incubation was finished, each well was washed once with 500 μl assay buffer, and 500 μl lysis buffer 1B attached to a cAMP EIA system from Amersham was added to each well, to extract cAMP. According to the protocol of the kit, 100 μl of each extract was used to determine the level of cAMP. For the inhibitory activity of the sample on cAMP production, the difference (inhibited cAMP production) between the maximum level and the level of cAMP in the sample-containing wells was determined, and the inhibitory activity was expressed as percentage relative to the increased level of cAMP production stimulated with forskolin (that is, the difference between the maximum level and basal level), and from this dose-reaction curve, the EC50 was determined.
Compound,pIC50 (APJ [1]; room temperature […]),pIC50 (APJ [2]),pEC50 (APJ [3]),pIC50 (APJ [1]; room temperature 1.5 hours)
CSCC[C@H](NC(=O)[C@@H]1CCCN1C(=O)CNC(=O)[C@H](CCCCN)NC(=O)[C@H](Cc1c[nH]cn1)NC(=O)[C@H](CO)NC(=O)[C@H](CC(C)C)NC(=O)[C@H](CCCNC(=N)N)NC(=O)[C@@H]1CCCN1C(=O)[C@H](CCCNC(=N)N)NC(=O)[C@H](CCCCNC(=O)[C@H](CCCNC(=N)N)NC(=O)[C@@H](N)CCCNC(=N)N)NC(=O)[C@H](CCCNC(=N)N)NC(=O)[C@@H](N)CCCNC(=N)N)C(=O)N1CCC[C@H]1C(=O)N[C@@H](Cc1ccccc1)C(=O)O [Compound in Ex. 21],8.54,9.08,9.24,–
CSCC[C@H](NC(=O)[C@@H]1CCCN1C(=O)CNC(=O)[C@H](CCCCN)NC(=O)[C@H](Cc1c[nH]cn1)NC(=O)[C@H](CO)NC(=O)[C@H](CC(C)C)NC(=O)[C@H](CCCNC(=N)N)NC(=O)[C@@H]1CCCN1C(=O)[C@@H](N)CCCNC(=N)N)C(=O)N[C@@H](CC1CCCCC1)C(=O)O [Compound in Ex. 36] (H-RPRLSHKGPM[Cha]-OH; N-terminus and C-terminus assumed),–,9.29,9.66,–
CSCC[C@H](NC(=O)[C@@H]1CCCN1C(=O)CNC(=O)[C@H](CCCNC(=N)N)NC(=O)[C@H](CCCNC(=N)N)NC(=O)[C@H](Cc1ccccc1)NC(=O)[C@H](CC(C)C)NC(=O)[C@H](CCCNC(=N)N)NC(=O)[C@@H]1CCCN1C(=O)[C@H](CCCNC(=N)N)NC(=O)[C@@H]1CCC(=O)N1)C(=O)N1CCC[C@H]1C(=O)N[C@@H](Cc1ccccc1)C(=O)O [Compound in Ex. 42] ([pGlu]RPRLFRRGPMPF-OH),–,9.09,9.82,–
CSCC[C@H](NC(=O)[C@@H]1CCCN1C(=O)CNC(=O)[C@H](CCCCN)NC(=O)[C@H](CC(C)C)NC(=O)[C@H](CO)NC(=O)[C@H](CC(C)C)NC(=O)[C@H](CCCNC(=N)N)NC(=O)[C@@H]1CCCN1C(=O)[C@H](CCCNC(=N)N)NC(=O)[C@@H]1CCC(=O)N1)C(=O)N1CCC[C@H]1C(=O)N[C@@H](Cc1ccccc1)C(=O)O [Compound in Ex. 38],–,9.23,9.80,–
CC(C)C[C@H](NC(=O)[C@H](CCCNC(=N)N)NC(=O)[C@@H]1CCCN1C(=O)[C@@H](N)CCCNC(=N)N)C(=O)N[C@@H](Cc1ccccc1)C(=O)N[C@@H](Cc1c[nH]cn1)C(=O)N[C@@H](CCCCN)C(=O)NCC(=O)N1CCC[C@H]1C(=O)N[C@@H](CC1CCCCC1)C(=O)N[C@@H](Cc1ccc(Cl)cc1)C(=O)O [Compound in Ex. 37] (H-RPRLFHKGP[Cha][Phe(4-Cl)]-OH; N-terminus and C-terminus assumed),–,9.27,9.37,–

# Stronger by pIC50 (APJ [2]), values ahead:
pIC50 (APJ [1]; room temperature […]),pIC50 (APJ [2]),pEC50 (APJ [3]),pIC50 (APJ [1]; room temperature 1.5 hours),Compound
–,10.41,9.47,7.89,CSCC[C@H](NC(=O)[C@@H]1CCCN1C(=O)CNC(=O)[C@H](CCCCN)NC(=O)[C@H](Cc1c[nH]cn1)NC(=O)[C@H](CO)NC(=O)[C@H](CC(C)C)NC(=O)[C@H](CCCNC(=N)N)NC(=O)[C@@H]1CCCN1C(=O)[C@@H](N)CCCNC(=N)N)C(=O)N1CCC[C@H]1C(=O)N[C@@H](Cc1ccc(Cl)cc1)C(=O)O [Compound in Ex. 8]
8.57,9.54,9.00,–,CC(C)C[C@H](NC(=O)[C@H](CCCNC(=N)N)NC(=O)[C@@H]1CCCN1C(=O)[C@@H](N)CCCNC(=N)N)C(=O)N[C@@H](Cc1ccccc1)C(=O)N[C@@H](Cc1c[nH]cn1)C(=O)N[C@@H](CCCCN)C(=O)NCC(=O)N1CCC[C@H]1C(=O)N[C@@H](CC1CCCCC1)C(=O)N1CCC[C@H]1C(=O)N[C@@H](Cc1ccc(Cl)cc1)C(=O)O [Compound in Ex. 13] (H-RPRLFHKGP[Cha]P[Phe(4-Cl)]-OH; N-terminus and C-terminus assumed)
8.10,10.18,9.42,–,CSCC[C@H](NC(=O)[C@@H]1CCCN1C(=O)CNC(=O)[C@H](CCCCN)NC(=O)[C@H](Cc1c[nH]cn1)NC(=O)[C@H](Cc1ccccc1)NC(=O)[C@H](CC(C)C)NC(=O)[C@H](CCCNC(=N)N)NC(=O)[C@@H]1CCCN1C(=O)[C@@H](N)CCCNC(=N)N)C(=O)N1CCC[C@H]1C(=O)N[C@@H](Cc1ccc(Cl)cc1)C(=O)O [Compound in Ex. 16] (H-RPRLFHKGPMP[Phe(4-Cl)]-OH; N-terminus and C-terminus assumed)
